This experiment has as its system HCV pseudoparticles (genotype 1a HCV E1 and E2 envelope, H77C isolate). Put plainly: microbe, parasite or virus in culture. The class given is cell-based, HCV genotype 1a (H77C isolate). The following applies: Hepatitis C virus, Huh-7, 48 h, HCV pseudoparticle entry into Huh7 cells, luciferase measured 2 days after infection.

pEC50: −log10 of the molar value.

Broadly, the pEC50 is the negative decadic logarithm of the EC50, by convention in mol/L.

In the case of `CC1(C)CNCCCOc2ccc(cc2)CNc2cc(OCC(F)(F)F)nc(n2)Nc2ccc(cc2)C(=O)NC1` [Compound 3002], the pEC50 (class symbol) is greater than 7.00.
`CC1(C)CNCCCOc2ccc(cc2)CNc2nc(cc(OCC(F)(F)F)n2)Nc2ccc(cc2)C(=O)NC1` [Compound 3001]: the pEC50 (average of duplicate) was 6.97 and the negative-log EC50 (pEC50) (class symbol) is 6.00 to 7.00.

The values are drawn from patent publication US8697706B2 (priority 2011, dated 2014).
